Drawing on PubChem BioAssay AID2305 (GlaxoSmithKline (GSK), 2010), this text covers IC50 for 44 compounds.

For the test, the system named is P. falciparum 3D7 growth, pLDH absorbance. Description: P. falciparum 3D7 growth inhibition, dose response, strain 3D7 (AID 2305).

One may read the IC50 as the concentration needed to halve the response being measured. Low readings indicate greater potency in that assay, high ones weaker potency in that assay. With `CCOc1cc(CC)ccc1C1CCN(CCCCNC(=O)c2ccc(NC(=O)c3ccc(Cl)cc3)cc2)CC1`, the IC50 came to 740 nM.

`COc1cc(N)cc2sc(N)nc12` gave an IC50 of 250 nM.

For `Cc1cccc2[nH]c(-c3ccc(-c4ccc(CN5CCC(CO)CC5)cc4)s3)nc12`, the IC50 turned out to be 810 nM.

`Cc1ccc(NC(=O)c2ccc(CN3CCCN(CCC(C)C)CC3)cc2)cc1F` had an IC50 of 610 nM.

As for `CCc1c[nH]c2c(N3CCCCC3=O)cc(C(=O)N[C@@H](Cc3ccccc3)[C@H](O)CNCc3cccc(OC)c3)cc12`, the IC50 was 170 nM.

The compound `CCN(CC)CCN(Cc1ccc(-c2ccc(C(F)(F)F)cc2)cc1)C(=O)Cn1c(CCc2cccc(F)c2F)nc(=O)c2ccc(C)cc21` had an IC50 of 670 nM.

`O=C(Nc1ccc(C(=O)OCC2CCCCC2)cc1)N[C@@H](Cc1ccc(O)cc1)C(=O)NC1CCN(Cc2ccc(O)cc2)C1` (some centres undefined): the IC50 came to 870 nM.

For the compound `COc1ccc(CNCc2ccc(F)cc2)cc1-c1ccc(OC)c(S(=O)(=O)NCCN2CCCC2)c1`, the IC50 turned out to be 790 nM.

In turn, `O=C(/C=C/c1ccc(Cl)c(Cl)c1)NCCCCCN1CCCC(CNS(=O)(=O)c2cccc(C(F)(F)F)c2)C1` (centres undefined) yielded an IC50 of 950 nM.

In turn, `CO/C(=C\C=C\c1cc2cc(Cl)c(Cl)cc2[nH]1)C(=O)NCCCN1CCN(Cc2ccccc2)CC1` displayed an IC50 of 910 nM.

In turn, `Cc1cc(NC2CCN(CC3CCCCC3)C2)nc(Nc2ccc(Br)cc2)n1` (centres undefined) returned an IC50 of 570 nM.

Regarding `CCCCCCCNc1cc(C)nc2ccc(OC)cc12`, the IC50 came to 670 nM.

In turn, `Cc1ccc(Nc2nc3cc(Nc4ccnc(Nc5cccc(CS(C)(=O)=O)c5)n4)ccc3o2)cc1` returned an IC50 of 920 nM.

For `Oc1ccccc1CNCC12CC3CC(CC(C3)C1)C2`, the IC50 is 280 nM. This IC50 lies about 3.3-fold lower than the previous one.

In turn, `Oc1ccc(-c2nc3c4cc(I)ccc4c4ccc(I)cc4c3[nH]2)cc1` returned an IC50 of 970 nM. This IC50 is about 3.5-fold higher than that of the compound before.

For the compound `CNCCNCc1cccc(-c2ccc(-c3nc4c(C)cccc4[nH]3)s2)c1`, the IC50 was 950 nM. This IC50 and that of the compound before are within 1.5-fold of each other.

In turn, `Cc1ccc(C)c(Sc2ccc(NC(=O)CN3CCN(C(=O)c4ccco4)CC3)cc2)c1` had an IC50 of 720 nM. The IC50 values of the last two compounds are within 1.5-fold of each other.

Consider `CN(C)c1c(CNCCCCCCNCc2ccc3ccccc3c2N(C)C)ccc2ccccc12`, for which the IC50 came out at 460 nM.

`Cc1ccc(NC(=O)c2cc([N+](=O)[O-])ccc2NCc2cccnc2)cc1Cl` registered an IC50 of 1120 nM.

For `CC(C)CN1CCN(c2nc(C#N)c3c(c2C(=S)NC2CCCCC2)CC(C)(C)OC3)CC1`, the IC50 was 300 nM.

Turning to `COc1cccc(-c2ccc3c(-c4ccc(F)cc4)cnc(N)c3c2)c1`, the IC50 is 810 nM.

Turning to `OC(c1cc(C(F)(F)F)nc2c(F)cccc12)C1CCCCN1` (centres undefined), the IC50 worked out at 780 nM.

Turning to `O=C(Nc1ccccc1O)C1CCN(c2ncnc3cc(-c4ccc(F)cc4)sc23)CC1`, the IC50 was determined as 870 nM.

For `Cc1cc(NC(=O)c2ccc(-c3ccccc3)cc2)no1`, the IC50 was determined as 1020 nM.

Compound `CC(C)CCN1CCC(Oc2ccc(NC(=O)c3ccccc3)cc2Cl)CC1` yielded an IC50 of 1300 nM.

For the compound `O=C(NCCCCN1CCC(c2ccc(Br)cc2)CC1)c1ccc(NC(=O)c2ccc(Cl)cc2)cc1`, the 50% inhibitory concentration (IC50) turned out to be 710 nM. Against the preceding compound, the IC50 is about 1.8-fold lower.

Compound `COc1ccc(C(O)CNC(C)CCc2ccccc2)cc1C(F)(F)F` (centres undefined) yielded an IC50 of 70 nM.

`Cc1cc(NN=Cc2ccccc2[N+](=O)[O-])c2cccc(C)c2n1` showed an IC50 of 550 nM.

Regarding `CC1(C)N=C(N)NC(NOCC=Cc2ccccc2)=N1`, the IC50 amounted to 230 nM. This IC50 is about 2.4-fold lower than that of the compound before.

`Cc1c(C(=O)N(C)C)sc2c1c(=O)n(Cc1ccccc1)c(=O)n2CC(=O)Nc1ccccc1F` came in with a concentration for half-maximal inhibition (IC50) of 660 nM.

`COc1ccc(C(O)CNC(C)CCc2ccc(F)cc2)cc1C(F)(F)F` (centres undefined) had an IC50 of 750 nM. The IC50 values of the last two compounds are within 1.5-fold of each other.

In the case of `CCc1ccc(-c2nc3cc(NC(=O)c4ccc([N+](=O)[O-])o4)ccc3o2)cc1`, the half-maximal inhibitory concentration (IC50) came out at 250 nM. This IC50 is about 3-fold lower than that of the compound before.

The compound `O=C(/C=C/c1ccc(Cl)c(Cl)c1)NCCCCCN1CCCC(CNC(=O)c2sc3ccccc3c2Cl)C1` (centres undefined) came in with an IC50 of 870 nM.

Consider `CN(C(=O)c1snnc1-c1ccccc1)C1CCN(CCCCCNC(=O)/C=C/c2ccc(Cl)c(Cl)c2)CC1`, for which the IC50 worked out at 190 nM.

As to `COc1ccccc1N1CCN(CCCCNC(=O)c2ccc(NC(=O)c3cc(Cl)cc(Cl)c3)cc2)CC1`, the IC50 was determined as 460 nM.

As for `COc1ccc(NC(=O)NC2CCN(CCCCCNC(=O)/C=C/c3ccc(Cl)c(Cl)c3)C2)c(OC)c1` (centres undefined), the IC50 was determined as 820 nM.

`CCOC(=O)N/N=C/[C@H](CCc1ccccc1)NC(=O)[C@H](CC(C)C)NC(=O)c1cc2cccc(OC)c2o1` had an IC50 of 880 nM.

With `O=C(Nc1ccc(Cl)cc1)c1cccc(S(=O)(=O)NC2CCN(CC3CCCCC3)CC2)c1`, the IC50 is 720 nM.

In the case of `COc1ccc(C)cc1NC(=O)CSc1nc2cccnc2n1C1CCCCC1`, the IC50 is 540 nM. The IC50 values of the last two compounds are within 1.5-fold of each other.

For the compound `O=C(Nc1cc(Cl)ccc1-n1cncn1)C1(c2ccccc2)CC1`, the IC50 came to 450 nM. This IC50 and that of the compound before are within 1.5-fold of each other.

As to `CN(C)c1ccc(CN2CCC(NC(=O)c3ccc(-c4cccc(C(F)(F)F)c4)s3)CC2)cc1`, the IC50 was 1150 nM.

Consider `CCN(CC)CCOc1cc2c(cc1Br)-c1cc(Br)c(OCCN(CC)CC)cc1C2=NO`, for which the IC50 came to 1090 nM.

For `Cc1ccc(NC(=O)Nc2ccc(Cn3ncc(N4CCCNCC4)c(Cl)c3=O)cc2)cc1`, the IC50 was 920 nM.

`Cc1ccc(NC(=O)c2ccc(CN3CCCN(Cc4cccc(O)c4)CC3)cc2)cc1`: the IC50 amounted to 740 nM.
